Literature values as cited in patent US20040047835A1, “Combinatorial drug therapy using polymer drug conjugates” (priority 2002, published 2004).
Where two headings read alike, the source gives them in different places.

Key:
[1] = test system: mammary MCa-4 tumor; conditions: mammary MCa-4 tumor model; radiation preceded drug injection
[2] = test system: cell cycle
[3] = test system: tumor-bearing hosts; conditions: compared with free (unconjugated) paclitaxel
[4] = test system: ovarian Oca-1 carcinoma; conditions: equivalent paclitaxel dose of 60 mg/kg 24 h after tumor irradiation; versus radiation and paclitaxel

Compound | interaction of combined radiation and drug [1] | effect on cell cycle [2] | anti-tumor activity / efficacy [3] | anti-tumor activity / efficacy ([3]; listed as PGTXL) | tumor growth delay, combined with radiation [4]
CC(=O)O[C@H]1C(=O)[C@@]2(C)[C@H]([C@H](OC(=O)c3ccccc3)[C@]3(O)C[C@H](OC(=O)[C@H](O)[C@@H](NC(=O)c4ccccc4)c4ccccc4)C(C)=C1C3(C)C)[C@]1(OC(C)=O)CO[C@@H]1C[C@@H]2O [paclitaxel, reference compound] | additive or sub-additive interaction | induced a G2/M arrest |  |  | 
poly(L-glutamic acid)-paclitaxel [PG-TXL] | synergistic interaction | induced a G2/M arrest | increased efficacy | superior anti-tumor activity | significantly greater tumor growth delay
